Several values for one entry are separate records, joined by “and”; a condition that tells them apart may be missing. Identical values can stand only once.
Tests used:
Male Swiss Webster mice [1] = test: Serum and urine biochemical measurements (osteocalcin, deoxypyridinoline); format: in vivo, mouse; conditions: 27 days; for Osteocalcin: serum; for Deoxypyridinoline: urine
Protocol: (§1) Animals at peak bone mass were used to avoid obscuring the negative impact of glucocorticoid excess on bone mineral density by the confounding effects of increased linear and radial growth. Before the experiment began, bone mineral density measurements were repeated to allocate the animals into groups (n=4-5) with equivalent spinal density values. […] These doses were administered for 27 days by subcutaneous implantation of slow-release pellets (Innovative Research of America, Sarasota, Fla.). Bone mineral density measurements were obtained at the beginning of the experiment and 27 days post-implantation. For dynamic histomorphometric measurements, tetracycline HCl (30 mg/kg body weight) was given intraperitoneally 17 and 23 days post-implantation. After 27 days, the mice were sacrificed, serum and urine specimens were taken, bone marrow aspirates were obtained from the right femur for ex vivo marrow cell cultures and the left femur and lumbar vertebrae were prepared for histomorphometric analysis. Livers were examined for fatty infiltration as a sign of prednisolone toxicity. The weight of the seminal vesicles (mg/100 g body weight) was used as an index of the androgen status of the animals (12). To help interpret these measurements, a separate group of animals was orchidectomized (n=5).
Serum osteocalcin was measured by radioimmunoassay using a goat anti-murine osteocalcin and murine osteocalcin as tracer and standard (Biomedical Technologies, Stoughton, Mass.). Urinary free deoxypyridinoline excretion was determined by a microtiter competitive enzyme immunoassay (Pyrilinks-D, Metra Biosystems, Mountain View, Calif.) and was expressed as a ratio to the urinary creatinine.

[2] = system: murine osteoblasts and osteocytes; test: Apoptosis (TUNEL) in undecalcified murine bone sections; format: in vivo, mouse
Protocol: (§2) Sections were mounted on silane-coated glass slides (Scientific Device Lab, Inc., Des Plains, Ill.), deplasticized and incubated in 10 mM citrate buffer, pH 7.6, in a microwave oven at 98° C. for 5 minutes. Slides were then incubated with 0.5% pepsin for 30 minutes at 37° C. Apoptotic cells were detected by the TUNEL reaction (transferase-mediated biotin-dUTP nick end-labeling) using Klenow terminal deoxynucleotidyl transferase (Oncor, Gaithersburg, Md.) in sections counterstained with 1% methyl green. The TUNEL reaction was noted within cell nuclei and the cells whose nuclei were clearly brown from the peroxidase-labeled anti-digoxigenin antibody instead of the blue-green from the methyl green were interpreted as positive. Plastic-embedded sections of weaned rat mammary tissue were used as a positive control. Negative controls were made by omitting the transferase. Morphological changes characteristic of apoptosis were examined carefully to minimize ambiguity regarding the interpretation of results. With these precautions, TUNEL has been unequivocally associated with apoptosis (19). […] Apoptosis was also assessed in transiliac bone biopsy specimens taken from two patients with glucocorticoid-induced osteoporosis (receiving 15 to 25 mg/d of prednisone for 3 to 6 yr) and from 12 age-, sex- and race-matched controls (13). Two longitudinal sections were examined from each patient and control subject. Osteoblasts were identified as cuboidal cells lining the osteoid-covered trabecular perimeter (7,9,13). Osteocytes were identified inside lacunae in mineralized bone.

Male Swiss Webster mice [3] = test: Bone densitometry (DEXA) in prednisolone-treated mice; format: in vivo, mouse; conditions: for Global BMD (% change) / Hindquarters BMD (% change) / Spinal BMD (% change): 27 days
Source text: as §1, with “Bone mineral density (BMD) determinations were done at two week intervals to identify the peak adult bone mass of the mice, which was reached between 5 and 6 months-of-age (9). Animals” for “Animals”
Dual-energy X-ray absorptiometry (DEXA) was used to determine global (whole body minus the head), spinal and hindquarters bone mineral density in live mice (7,9). The scans done at 27 days after pellet implantation were analyzed using the ‘Compare’ technique, in which the evaluation is based on the exact positioning and region of interest placement of the baseline scan. […] Over the 18 months, the coefficient of variation for the bone mineral density of a plastic-embedded whole mouse skeleton was 3.0% (n=146).

[4] = system: murine vertebral cancellous bone; format: in vivo, mouse
Protocol: (§3) The distal femora and lumbar vertebrae were fixed in 4° C. Millonig's phosphate-buffered 10% formalin, pH 7.4, embedded undecalcified in methyl methacrylate and stained (7,9,13). The histomorphometric examination was done with a computer and digitizer tablet (OsteoMetrics Inc. Version 3.00, Atlanta, Ga.) interfaced to a Zeiss Axioscope (Carl Zeiss, Inc., Thornwood, N.Y.) with a drawing tube attachment. All cancellous measurements were two-dimensional, confined to the secondary spongiosa and made at ×400 magnification (numerical aperture 0.75). The terminology and units used are those recommended by the Histomorphometry Nomenclature Committee of the American Society for Bone and Mineral Research (14). The trabecular width and osteoid width were measured directly. Trabecular spacing and number were calculated (15). Only TRAPase-positive cells were included in the osteoclast perimeter. The rate of bone formation (μm^2/μm/d) and turnover (%/d) were calculated (7).
To directly establish whether glucocorticoids initially accelerate bone resorption in the mouse, the vertebral cancellous bone histology were examined in an additional group of somewhat younger mice (5-mo-old) after 7 days administration of the higher dose of prednisolone or placebo (n=5).

[5] = system: CFU-F, CFU-OB and osteoclast progenitors in bone marrow cells; test: Osteoblastogenesis and osteoclastogenesis in ex vivo bone marrow cell cultures; set-up: species or system mouse; conditions: 27 d
Protocol: One femur from each mouse was flushed with 5 ml of phenol red-free αMEM (Gibco BRL, Gaithersburg, Md.) containing 10% FBS (Hyclone, Logan, Utah) to obtain marrow cells. After the cells were rinsed and resuspended to obtain a single cell suspension, the nucleated cell count was determined using a Coulter Counter. Cells from each animal were cultured separately.
The number of colony-forming unit-fibroblast (CFU-F) and CFU-osteoblast (CFU-OB) present in the bone marrow preparations were determined (16-18). Briefly, cells were seeded at 1.5×10^6 per 10 cm^2 well for the determination of CFU-F number and maintained for 10 days in phenol red-free αMEM containing 15% preselected FBS, 50 μM ascorbic acid and 10 mM β-glycerophosphate (Sigma Chemical Co, St. Louis, Mo.) with one-half of the medium replaced after 5 days. After fixation in neutral buffered formalin and staining with hematoxylin, colonies containing a minimum of 20 fibroblastoid cells were enumerated. Cells were seeded at 2.5×10^6 cells per 10 cm^2 well for the determination of CFU-OB number and cultured for 25-28 days as described above for CFU-F. After fixation in 50% ethanol and 18% formaldehyde, cultures were stained using Von Kossa's method to visualize and enumerate colonies containing mineralized bone matrix.
Osteoclast formation in bone marrow cultures was assessed in replicate cultures (4-6 from each animal) maintained for 9 days in the presence of αMEM, 10% FBS and 10 nM 1.25(OH)2D3 (7). Briefly, marrow cells were cultured at 1.5×10^6 per 2 cm^2 well on 13 mm round Thermanox disks and maintained for 8 days in the presence of 10% FBS in αMEM supplemented with 10^−8 M 1.25(OH)2D3 (provided by Dr. Milan Uskokovic, Hoffman-LaRoche, Nutley, N.J.). At the end of the experiment, cells were processed for the autoradiographic detection of bound ^125I-calcitonin (^125I-CT) and stained for tartrate-resistant acid phosphatase. […] Therefore, mononucleated and multinucleated cells that both bind ^125I-CT and express TRAPase were designated as osteoclastic cells. The number of osteoclasts formed in this assay is a reflection of the number of osteoclast progenitors present in the bone marrow aspirate and the number of stromal/osteoblastic support cells that form during the culture period.
The number of CFU-F colonies, CFU-OB colonies, and osteoclastic cells formed from the marrow cells of each animal was expressed as the number per femur, which was calculated by multiplying the number of colonies or osteoclasts obtained per 10^6 cells seeded at the initiation of the cultures by the total number of marrow cells obtained from the animal.

[6] = system: murine vertebral cancellous bone; test: Vertebral cancellous bone histomorphometry after 27 days
Protocol: as §1, §3

[7] = Food intake, body weight, seminal vesicle weight and hepatic fatty infiltration; format: in vivo, mouse; conditions: mice; for Seminal Vesicle Weight: index of androgen status
Protocol: Male Swiss Webster mice (Charles River Laboratories, Stone Ridge, N.Y.) were electronically tagged (Biomedic Data System Inc., Maywood, N.J.) and kept in plastic cages (3-5 animals per cage) under standard laboratory conditions with a 12 hr dark, 12 hr light cycle and a constant temperature of 20° C. and humidity of 48%. All mice were fed on a standard rodent diet (Agway RMH 3000, Arlington Heights, Ill.) containing 22% protein, 5% fat, 5% fiber, 6% ash, 3.5 Kcal/g, 1.0 IU vitamin D3/g, 0.97% calcium and 0.85% phosphorus with water ad libitum. The animals and food supply were weighed at one week intervals throughout the experiment. Studies were approved by the UAMS Division of Laboratory and Animal Medicine.
as §1, with “Bone mineral density (BMD) determinations were done at two week intervals to identify the peak adult bone mass of the mice, which was reached between 5 and 6 months-of-age (9). Animals” for “Animals”

human cancellous bone = test: Bone histomorphometry of transiliac bone biopsies of patients; format: in vivo; conditions: two patients
Protocol: as §3, §2

[8] = system: human osteoblasts and osteocytes; test: Apoptosis (TUNEL) in transiliac bone biopsies of patients with glucocorticoid-induced osteoporosis; format: in vivo; conditions: two patients
Protocol: as §2, with “Two longitudinal sections were examined from each patient and control subject. Osteoblasts were identified as cuboidal cells lining the osteoid-covered trabecular perimeter (7,9,13). Osteocytes were identified inside lacunae in mineralized bone.” left out

[9] = higher dose (2.1 mg/kg/d), 27 days, vs placebo

Structure (SMILES): C[C@]12C=CC(=O)C=C1CC[C@@H]1[C@@H]2[C@@H](O)C[C@@]2(C)[C@H]1CC[C@]2(O)C(=O)CO [prednisolone]
- Decrease of serum osteocalcin compared to placebo (Male Swiss Webster mice [1]): more than 50%
- Osteocalcin (Male Swiss Webster mice [1]; 0.7 mg/kg/d): 63.0 ± 27.7 µg/L
- Osteocalcin (Male Swiss Webster mice [1]; 2.1 mg/kg/d): 46.4 ± 13.8 µg/L
- Deoxypyridinoline (Male Swiss Webster mice [1]; 0.7 mg/kg/d): 63.6 ± 14.7 μM/mM creatinine
- Deoxypyridinoline (Male Swiss Webster mice [1]; 2.1 mg/kg/d): 81.5 ± 11.3 μM/mM creatinine
- Apoptotic hypertrophic chondrocytes and bone marrow cells ([2]; either dose, mice): increase
- Increase in osteoblast apoptosis in vertebrae ([2]; higher dose, 27 days, vs controls): 3 fold
- Apoptotic osteocytes in femoral metaphyseal cortical bone ([2]; higher dose, 27 days, 131 osteocytes, none in controls): 28%
- Osteoblast apoptosis in vertebral cancellous bone ([2]; higher dose, 27 days, controls 0.66%±0.07): 2.03%±0.34
- fAp, fraction of osteoblasts that undergoes apoptosis ([2]; higher dose, estimate with tAp doubled, placebo 0.6): 0.9
- Prevalence of osteoblast apoptosis (fraction) ([2]; higher dose, placebo 0.0066): 0.0203
- Osteoclast apoptosis ([2]; mice, 27 days): not observed
- Global BMD (% change) (Male Swiss Webster mice [3]; 0.7 mg/kg/d s.c. slow-release pellet): −5.0 ± 2.2 % change
- Hindquarters BMD (% change) (Male Swiss Webster mice [3]; 0.7 mg/kg/d): −3.8 ± 8.0 % change
- Spinal BMD (% change) (Male Swiss Webster mice [3]; 0.7 mg/kg/d): −6.8 ± 3.2 % change
- Effect on bone mineral density (Male Swiss Webster mice [3]; 1.4 mg/kg/d, pilot studies): invariably causes densitometric evidence of bone loss
- Global BMD (% change) (Male Swiss Webster mice [3]; 2.1 mg/kg/d s.c. slow-release pellet): −6.6 ± 1.9 % change
- Hindquarters BMD (% change) (Male Swiss Webster mice [3]; 2.1 mg/kg/d): −3.4 ± 6.9 % change
- Spinal BMD (% change) (Male Swiss Webster mice [3]; 2.1 mg/kg/d): −8.7 ± 3.5 % change
- Effect on bone mineral density (Male Swiss Webster mice [3]; pellets releasing 0.5 mg/kg/d (the no effect dose)): did not decrease bone mineral density
- Decrease in osteoblast perimeter ([4]; higher dose, 7 days): 59%
- Increase in osteoclast perimeter ([4]; higher dose, 7 days): 96%
- Osteoblast perimeter ([4]; mouse, in vivo): 2.1±1.1%
- Osteoclast perimeter ([4]; mouse, in vivo): 1.00±0.41%
- CFU-F colonies ([5]; higher dose (2.1 mg/kg/d), placebo 1250±374, NS): 698±104 number per femur
- Decrease in number of CFU-OB colonies ([5]; higher dose): 86%
- Decrease in number of osteoclastic cells ([5]; higher dose): 65%
- CFU-OB colonies ([5]; higher dose, placebo 375±257): 54±14 number per femur
- Osteoclastic cells formed in response to 1.25(OH)2D3 ([5]; higher dose, placebo 1387±920): 492±311 number per femur
- Bone area/Tissue area ([6]; 0.7 mg/kg/d, 27 days): 6.9 ± 2.1%
- Bone area/Tissue area ([6]; 2.1 mg/kg/d, 27 days): 6.3 ± 1.7 %
- Decrease in mineralizing perimeter ([6]; 27 days): 26%
- Decline in mineral appositional rate ([6]; higher dose (2.1 mg/kg/d), 27 days): 40%
- Decline in trabecular width [6, 9]: 23%
- Decline in vertebral cancellous bone area [6, 9]: 40%
- Decrease in osteoid area ([6]; higher dose, 27 days): 29%
- Decrease in osteoid perimeter ([6]; higher dose, 27 days): 34%
- Decrease in osteoid width ([6]; higher dose, 27 days): 27%
- Decrease in rate of bone formation ([6]; higher dose, 27 days): 53%
- Decline in mineral appositional rate ([6]; lower dose (0.7 mg/kg/d), 27 days): 22%
- Active lifespan of an osteoblast ([6]; mouse, in vivo): about 260 hours
- Increase in empty erosion cavities or reversal perimeter ([6]; mouse, in vivo): 3 fold
- Wall width ([6]; mouse, in vivo): about 8 μm
- Body Weight ([7]; 0.7 mg/kg/d): 33.8 ± 4.3 g
- Food Intake ([7]; 0.7 mg/kg/d): 3.6 ± 0.2 g/day
- Seminal Vesicle Weight ([7]; 0.7 mg/kg/d): 92.7 ± 8.7 mg/100 g body weight
- Body Weight ([7]; 2.1 mg/kg/d): 32.2 ± 4.2 g
- Food Intake ([7]; 2.1 mg/kg/d): 3.7 ± 0.4 g/day
- Seminal Vesicle Weight ([7]; 2.1 mg/kg/d): 83.1 ± 6.9 mg/100 g body weight
- Hepatic fatty infiltration ([7]; sign of prednisolone toxicity, 27 days): absent

Structure (SMILES): C[C@]12C=CC(=O)C=C1CC[C@@H]1[C@@H]2C(=O)C[C@@]2(C)[C@H]1CC[C@]2(O)C(=O)CO [prednisone]
- Cancellous bone area (human cancellous bone; one value each, normal is 22.4±1.2 SEM): 11.1% and 8.8%
- Osteoclast perimeter (human cancellous bone; normal is 0.9±0.2): 0% and 0.4%
- Reversal perimeter (human cancellous bone; normal is 6.9±0.7): 13.5% and 15.4%
- Osteoblast perimeter (human cancellous bone; normal is 7.6±0.4): 2.1% and 2.3%
- Trabecular width (human cancellous bone; normal is 161±9): 62 μm and 118 μm
- Apoptosis of osteoclasts or cortical osteocytes [8]: not observed
- Apoptotic osteoblasts in cancellous bone ([8]; 15 to 25 mg/d for 3 to 6 yr, absent in controls): ~30%

From patent US6660468B1, “Vitro and in vivo models for screening compounds to prevent glucocorticoid-induced bone destruction” (Board of Trustees of the University of Arkansas, priority 1998, dated 2003)
